The record followed here is patent US8815887B2, “Prophylactic or therapeutic method for Sjogren's syndrome” (Takeda Pharmaceutical Company Limited, priority 2012, dated 2014).

Structures are written as SMILES.

What all share (type): in vivo
Data set [1] relates to CD8+ T cells in the salivary gland. The data set can be described thus: CD8 mRNA level (CD8+ T cells) in salivary gland tissue, normalized to β-actin. Particulars: 26-week-old NOD mouse. From the text: (§1) The salivary gland of the 26-week-old NOD mice used in Experimental Example 2 for the measurement of the saliva secretion amount was removed, the total RNA was recovered from there, and the mRNA levels of CD4, CD8 and CCR9 were normalize with the β-actin expression level as the internal standard.

Data set [2] concerns CCR9. The data set can be described thus: CCR9 mRNA expression level in salivary gland tissue, normalized to β-actin. Particulars: 26-week-old NOD mouse, 50 and 250 mg/kg.
Description: as §1

For data set [3], the system named is anti-SS-A/Ro antibody. The data set can be described thus: Anti-SS-A/Ro Ig ELISA of blood of Sjogren's syndrome animal model. The note with it: 26-week-old NOD mouse; for onset frequency (positive anti-SS-A/Ro, antibody titer not less than 30 Unit): vehicle 100% onset. The protocol:
Blood samples from the 26-week-old NOD mice used in Experimental Example 2 for the measurement of the saliva secretion amount were collected, and ELISA test was carried out for two subsets of anti-SS-A/Ro and anti-SS-B/La found commonly in Sjogren's syndrome.
For quantification of the Total Anti-SSA Ig (IgG+IgA+IgM) in the serum, commercially available Mouse Anti-SSA Total Ig ELISA Kit Cat. No. 5710 (manufactured by ALPHA DIAGNOSTIC INTERNATIONAL) was used. The standard protocol was partly modified. A mouse serum sample was diluted 1/10-fold, the serum of C57BL/6 mouse was added to anti-SSA calibrator solution (Calibrator solution) to give 10% serum.

A short description of data set [4]: Time-course changes in plasma concentration in Sjogren's syndrome animal model. The note with it: NOD mouse, oral twice per day 50 and 250 mg/kg, repeated for 19 weeks. Here is the method: The compound was orally administered twice per day to 8-week-old NOD mouse under the following conditions, and administration was repeated for 19 weeks.
To the plasma (5 μL) collected from the NOD mouse were added a solvent solution (dimethyl sulfoxide/acetonitrile (2:8), 5 μL), and compound A solution (compound A dissolved in solvent solution, 5 μL) or compound B solution (compound B dissolved in solvent solution, 5 μL) for drawing an analytical curve. An internal standard substance (acetonitrile (115 μL) containing a deuterated form of compound A, or diclofenac sodium, 100 ng/mL)) was added, and the mixture was vigorously stirred. The mixture was centrifuged at 5250 rpm. To the supernatant (30 μL) was added a dilution solvent (60 μL) to give a sample solution (mobile phase A:mobile phase B=9:1 (v/v) was used as a dilution solvent).
The above-mentioned sample solution was injected into an HPLC-MS/MS analysis apparatus, and the obtained peak area was converted to concentration from the analytical curve. The detail of the analysis apparatus is shown below.

In data set [5] the test system is NOD/ShiLtJ mouse. As to the kind of experiment: Tolerability in the long-term efficacy study (Experimental Example 3). The note with it: relatively long term, same dose range (50 and 250 mg/kg). Here is the method:
(§2) The saliva secretion amount in 23-week-old NOD mice administered with compound A or compound B was measured in the same manner as in Experimental Example 2.

Data set [6] deals with CD4+ T cells in the salivary gland. As to the kind of experiment: CD4 mRNA level (CD4+ T cells) in salivary gland tissue, normalized to β-actin. Particulars: 26-week-old NOD mouse, compound A treatment group (50 and 250 mg/kg).
Description: as §1

In data set [7] the test system is NOD/ShiLtJ mouse. The data set can be described thus: Saliva secretion amount by pilocarpine stimulation in Sjogren's syndrome animal model.
Description: As an animal model for Sjogren's syndrome, most widely used NOD/ShiLtJ mouse (hereinafter sometimes referred to as NOD mouse) was selected since it meets the both conditions of the diagnosis standard: 1) development of dry eye and dry mouth, 2) increase of anti-SS-A/Ro and anti-SS-B/La antibody titer, and is easily available (Tegan N. Lavoie et. al., Journal of Biomedicine and Biotechnology Volume 2011 (2011), Article ID 549107, pp 1-14). 6-Week-old NOD mice were purchased from The Jackson Laboratory (US), after acclimatization for 1-2 weeks, animals before onset of diabetes were divided into 3 groups (maximum 30 mice per group) by randomization into each of the groups based on the body weight measured before the start of the test drug administration and the data of saliva secretion amount by pilocarpine stimulation under ketamine•xylazine anesthesia and subjected to the test. During the test drug treatment, the body weight and the blood glucose level were monitored at least once a week. The blood glucose level of several μL of the blood collected from the tail vein under 1-5% isoflurane anesthesia was measured by a blood glucose level measuring instrument (Accu-Chek Aviva Nano, Roche diagnostics K.K.). The diabetes diagnosis criteria was not less than 250 mg/dL, and one insulin pellet (LinBit, LinShin Canada, Inc.) was subcutaneously transplanted under 1-5% isoflurane anesthesia into the abdomen of the mouse that developed diabetes, and the blood glucose was controlled during the study by monitoring the blood glucose level, and adding or removing the pellet as necessary.
Compound A was orally administered twice daily (minimum ic dosing interval 6 hours) every day except Saturdays and Sundays. The dose of compound A was 50 mg/kg or 250 mg/kg, and 0.2 mL was orally administered as a single dose. The concentration of compound A was appropriately controlled by calculating an average body weight of the group once a week from the body weights of the NOD mice, and adjusting the concentration such that the administration of 0.2 mL results in the administration of each dose. On the other hand, the vehicle group without administration of compound A was orally administered with 0.2 mL of 0.5% methylcellulose solution in the same schedule as above.
Under anesthesia by intraperitoneal administration of a mixture (10 mL/kg) of ketamine (100 mg/kg) and xylazine (10 mg/kg), the saliva secreted in 15 min after subcutaneous administration of pilocarpine (5 mg/kg) was collected with defatted cotton, and the secretion amount was calculated from the defatted cotton weight before and after the measurement.
This measurement was performed twice when the mice reached 21-week-old and 26-week-old.
as §2

Data set [8] relates to anti-SS-B/La antibody. As to the kind of experiment: Anti-SS-B/La IgG ELISA of blood of Sjogren's syndrome animal model. The note with it: 26-week-old NOD mouse, 50 and 250 mg/kg. Here is the method: Blood samples from the 26-week-old NOD mice used in Experimental Example 2 for the measurement of the saliva secretion amount were collected, and ELISA test was carried out for two subsets of anti-SS-A/Ro and anti-SS-B/La found commonly in Sjogren's syndrome. […]
antigen: SS-B (RayBiotech, Inc., MD-27-0019P) plate: Immuno 96 Microwell Plate (Nunc, 442404) washing: 0.1% Tween 20 containing PBS (hereinafter sometimes to be referred to as PBS/T) substrate: One tablet of o-phenylenediamine dihydrochloride (OPD) (Sigma, P-4809) was dissolved in 50 mM citric acid-phosphoric acid buffer pH 5.0 (Sigma, P-4809) (10 mL), and 4 μL aqueous hydrogen peroxide was added.
SS-A and SS-B were each diluted with 50 mM carbonate buffer pH 9.6 (Sigma, C-3041) to 0.5 μg/mL and 1.0 μg/mL, respectively, and the antigen was added to an ELISA plate at 50 μL/well. After incubation at 4° C. overnight, the plate was washed 3 times with PBS/T, added with 2% BSA in PBS at 200 μL/well, and incubated at room temperature for 1 hr. After washing once with PBS/T, the serum diluted with PBS/T (100- to 500-fold) was added at 50 μL/well, and the mixture was incubated at room temperature for 1-2 hr. […]

The mark [9] stands for this setting: 23-week-old NOD mouse, 50 mg/kg.

Consider `CC(C)Oc1ccc(S(=O)(=O)Nc2ccc(Cl)cc2C(=O)c2cc[n+]([O-])cc2)cc1` [compound A, N-{4-chloro-2-[(1-oxidopyridin-4-yl)carbonyl]phenyl}-4-(propan-2-yloxy)benzenesulfonamide], for which the figures for the “amount of CD8+ T cells in the salivary gland as compared to the vehicle group” value in data set [1] (50 mg/kg) and in data set [1] (250 mg/kg) were “decreased to about half” and “about one-third”, respectively. Also, the “mRNA expression level of CCR9 in the salivary gland as compared to the vehicle group” value in data set [2] is recorded as “tended to decrease in a dose-dependent manner”. Besides, the “onset frequency (positive anti-SS-A/Ro, antibody titer not less than 30 Unit)” value was “about 50%” in data set [3] (50 mg/kg) and “about 30%” in data set [3] (250 mg/kg). The “share of treatment group with anti-SS-A/Ro antibody suppressed to the control level” value in data set [3] (250 mg/kg, control C57BL/6 mouse) is “about 70%”. In addition, the “anti-SS-A/Ro antibody titer in blood” value in data set [3] (50 and 250 mg/kg) was “decreased in a dose-dependent manner”. Further, in data set [4], the blood exposure result is recorded as “good blood exposure”. For the same molecule, the “metabolism / accumulation in the body” value in data set [4] is given as “rapidly metabolized without accumulation in the body”. The tolerability result in data set [5] is given as “clearly superior with compound A to compound B”. Also, the “amount of CD4+ T cells in the salivary gland as compared to the vehicle group” value in data set [6] is reported as “decreased to about half”. The saliva secretion amount result in data set [7] (21-week-old NOD mouse, 50 mg/kg orally twice daily from 8-week-old, vehicle about 8.3) was “about 9.8 mg/15 min/g BW”; in data set [7] (21-week-old NOD mouse, 250 mg/kg orally twice daily from 8-week-old, vehicle about 8.3) it was “about 11.2 mg/15 min/g BW”; in data set [7] (26-week-old NOD mouse, 50 mg/kg orally twice daily from 8-week-old, vehicle about 4.0) it was “about 5.5 mg/15 min/g BW”; in data set [7] (26-week-old NOD mouse, 250 mg/kg orally twice daily from 8-week-old, vehicle about 4.0), “about 8.0 mg/15 min/g BW”. The “saliva secretion amount compared to the vehicle group” value was “significantly suppressed a decrease in the saliva secretion amount” in data set [7] (setting [9]) and “significantly suppressed a decrease in the saliva secretion amount” in data set [7] (23-week-old NOD mouse, 250 mg/kg). For the same molecule, the “increase of saliva secretion amount than the vehicle group” value in data set [7] (26-week-old NOD mouse, 250 mg/kg) is “two-fold increase”. Also, in data set [7] (NOD mouse, 50 and 250 mg/kg, 21- and 26-week-old), the “effect on decrease in saliva secretion amount (dose dependence)” value is listed as “significantly suppressed a decrease in the saliva secretion amount in a dose-dependent manner”. Further, the “anti-SS-B/La antibody titer in blood” value in data set [8] is on record as “decreased in a dose-dependent manner”.

Take `CC(C)(C)c1ccc(S(=O)(=O)Nc2ccc(Cl)cc2C(=O)c2cc[n+]([O-])cc2)cc1` [compound B, N-{4-chloro-2-[(1-oxidopyridin-4-yl)carbonyl]phenyl}-4-(tert-butyl)benzenesulfonamide]: in data set [4], the “AUC relative to compound A” value was “about one-tenth that of compound A” and the “metabolism / accumulation in the body” value is “rapidly metabolized without accumulation in the body”. Moreover, in data set [7] (setting [9]), the “saliva secretion amount compared to the vehicle group” value is given as “significantly higher”. In data set [7] (23-week-old NOD mouse, 50 and 250 mg/kg), the “dose-dependent effect on saliva secretion amount” value is recorded as “the dose-dependent effect was not found”.
